For one assay, the system named is mechanical hyperalgesia. Put plainly: Acid saline-induced fibromyalgia model, hind paw withdrawal threshold by electronic von Frey. It counts as in vivo, female Wistar rats. The settings on record: nasal IGF-1 150 μg/dose on PD-2, PD-5, PD-8; experiments FM-7 and FM-8, n=3/group. An excerpt: However, due to its simplicity and reproducibility, a widely-used, non-inflammatory rodent model which mimics chronic, widespread muscle pain-like behavior was utilized. This fibromyalgia model consists of two unilateral injections of acid saline into the gastrocnemius muscle which produce bilateral, long-lasting mechanical hyperalgesia for up to 4 weeks without motor deficits or tissue damage observed histologically (Sluka et al., 2001), Hind paw withdrawal thresholds obtained using an electronic von Frey device were used as a measure of “inferred pain”.
Experimental Procedures here are described utilizing intranasal IGF-1 for treatment of pain related to the acid saline-induced fibromyalgia model. […]
Testing consists of placing rats in an acrylic cage module [23 cm×24 cm×14.6 cm (W×L×H)] which rests upon an elevated wire mesh grid floor (FIG. 21). […] The force at which this response occurs is recorded automatically by the electronic device and is designated as the paw withdrawal threshold (FIG. 22). […]
Two investigators were used for all experiments. […] The second investigator recorded paw withdrawal threshold (PWT) force levels, procedures modeled after the experimental strategy reported by Martinov et al., 2013. […]
Specifically, baseline (BA) measurements of paw withdrawal threshold (PWT) were determined for six animals/experiment prior to experimental treatment. […]

In assay [1] the test system is trigeminocervical complex c-fos. Put plainly: Trigeminocervical c-fos immunostaining after recurrent CSD, nasal IGF-1 with or without intravenous anti-CGRP antibody (Example 5). Type of assay: in vivo, rat. Here is the method: Migraine will be modeled using recurrent CSD (Grinberg et al., 2019; Won and Kraig 2019a,b; Won and Kraig, 2020). Briefly, the day before recurrent CSD, animals are anesthetized with inhalational isoflurane in oxygen (2-5%) and treated with intranasal IGF-1 (150 μg in 50 μl succinate buffer).
Anesthetized animals are then transferred to a standard stereotaxic head holder under 2-5% isoflurane inhalational anesthesia. Eyes are coated with Artificial Tears and head shaved, cleansed with Betadine, and 0.1 mL of 0.25% Bupivacaine is injected subcutaneously to either side of what will be a left of midline head incision made five minutes later. The underlying skull is scraped free of soft tissue and hemostasis achieved with bone wax. Two 1-2 mm craniotomies are drilled with a Dremel tool at +3 mm anterior to bregma and two mm lateral to the midline (for 0.5M KCl 10-30 nL pressure injections used to initiate CSD. A second craniotomy is placed six mm caudal to bregma and 4.5 mm lateral to the midline (for recording CSD. The surgery area is wiped with Betadine and incision closed with three wound clips. Animals are allowed to awaken and then returned to overnight standard Animal Facility Housing.
The next day (i.e., 20-24 hours later) animals are again be anesthetized as above with inhalational isoflurane and the left femoral vein cannulated for antibody infusion. Select groups of animals (see below) are treated with intravenous infusion either 1 mg/kg anti-CGRP (ab81887) or isotype IgG2a control in 0.5-0.6 ml normal saline. After infusions, the femoral incision is closed with wound clips.
Animals are stabilized for an hour under anesthesia (1.5% isoflurane in oxygen) after head sutures are removed, eyes coated with Artificial Tears and animals made ready for initiation and recording of CSD under deeper (5%) isoflurane in oxygen, which is then lowered back to 1.5% isoflurane in oxygen during CSD recordings. CSD is initiated as described above one to four hours after antibody infusion. All animals receive nine KCl injections. Then, isoflurane is raised to 5% and animals anesthetized with intraperitoneal ketamine and Xylazine followed quickly by euthanasia via intra-cardiac perfusion with 0.1 mL heparin (1,000 units/ml), then 250 ml of normal saline and finally 250 ml 4% paraformaldehyde in 0.2 M phosphate buffer. […]
2. […] All animals for nasal delivery of IGF-1 plus intravenous treatment (i.e., one ml saline or anti-CGRP antibody) followed by 90 minutes of evoked CSDs) were analyzed for trigeminal cervical complex c-fos immunostaining and trigeminal ganglion malondialdehyde immunostaining as previously described (Won and Kraig, 2020). […]

Entries after “also recorded” stand apart in the source; their conditions may differ.

On to “IGF-1: human recombinant IGF-1 (#191-G1; R&D Systems), 150 μg in 50 μL sodium succinate buffer, delivered nose-to-brain”, for which the “hind paw withdrawal threshold / pain-related behavior” value with mechanical hyperalgesia is “significant and continued reduction in pain-related behavior; also recorded: protection against acid-induced hind paw hyperalgesia”. Also, the “reduction in trigeminocervical c-fos activation from recurrent CSD” value in assay [1] (counts from −4.5 and 6.0 mm caudal to the obex) turned out to be 45%. Also, the “ln ratio (IGF-1/sham) of trigeminocervical c-fos” value was −0.56±0.08 in assay [1] (nasal IGF-1 alone, original Won and Kraig 2020 data, n=5); −0.548±0.16 in assay [1] (nasal IGF-1 plus intravenous saline a day later, new data, n=3). Also, the “ln ratio of trigeminocervical c-fos, combined groups” value in assay [1] (nasal IGF-1 with or without subsequent intravenous saline, n=10) is recorded as −0.547±0.11.

(Values after patent publication US12324827B2, “Combination therapy for the treatment of migraines” (The University of Chicago, priority 2019, dated 2025).)
